Laboratory results: patent publication US10906863B1, “Hydroxytyrosol 4-methoxycinnamic acid ester with antibacterial activity and a method of preparing the same” (SHAANXI UNIVERSITY OF SCIENCE AND TECHNOLOGY, priority 2020, dated 2021)
≈ marks a conversion by molar mass, not a printed value.

What was measured:
Assay type in all cases: cell-based
[1] = tested on: carbapenem-resistant Acinetobacter baumannii CR-AB 18-183; test: MIC by microbroth dilution, CR-AB 18-183; conditions: strain CR-AB 18-183, 37° C., 20-22 hours
From the text: (§1) The minimal inhibitory concentration (MIC) of the compound as determined by a microbroth dilution method with gentamicin, cefazolin sodium and ceftriaxone sodium as positive control.
(§2) The experimental strains included methicillin-resistant Gram-positive bacteria: methicillin-resistant Staphylococcus aureus MRSA 18-222, 18-575; multiple drug-resistant […] bacteria: vancomycin-resistant enterococci VRE 18-80,18-94, multidrug-resistant Pseudomonas aeruginosa MDR-PA 18-1774,18-202, carbapenem-resistant Acinetobacter baumannii CR-AB 18-183,18-560. All the experimental strains were donated by Huashan Hospital affiliated to Fudan University (Institute of antibiotics, Fudan University) and used after routine identification.
(§3) Preparation of MHB medium: 20.0 g MHB medium was added to 1 L distilled water, boiled until completely dissolved, packed in conical bottles and sterilized at 121° C. for 15 min.
(§4) The experimental strain was cultured to the logarithmic growth phase: under aseptic condition, the experimental strain was inoculated into 100 mL MHB medium and incubated in a constant temperature and humidity incubator at 37° C. for 20-22 hours.
(§5) Preparation of storage solution: weigh the sample to be tested, dissolve it with 1% DMSO solution, prepare a storage solution with a concentration of 2560 μg/mL, weigh a positive reference substance, dissolve it with aseptic distilled water, and configure a storage solution with a concentration of 2560 μg/mL.
(§6) Under aseptic condition, the experimental strains cultured to logarithmic growth phase were adjusted to 0.5 MCF turbidity standard with MHB medium and […], and the bacterial suspension with concentration of 10^6 CFU/mL was prepared for standby.
(§7) Dilution of storage solution and inoculation of experimental strain: under aseptic condition, the storage solution was diluted to 256 μg/mL solution. Take a sterile 96-well plate, add 200 μL MHB medium to the 12th well, and add 100 μL MHB medium to each well. Add 100 μL of positive control solution to the first well, mix well, and suck 100 μL from it and discard. Add 100 μL of the compound sample solution to the second well, mix well, and then pipette 100 μL to the third well. After mixing, pipette 100 μL to the fourth well, and dilute to the 11th well in this way. Finally, 100 μL was pipetted from the 11th well and discarded. The 12th hole was the growth control without drugs. So far, the concentration of the positive reference substance is 128 μg/mL, the concentrations of the sample solution are 128, 64, 16, 8, 4, 2, 1, 0.5, 0.25 μg/mL respectively. Then, 10 μL of the prepared bacterial suspension is added to each well, so that the final concentration of the bacterial liquid in each well is 5×10^5 CFU/mL.
(§8) Incubation: Cover the 96-well plate inoculated with the experimental strains, and incubate in a constant temperature and humidity box at 37° C. for 20-22 hours.

[2] = tested on: drug-resistant bacteria; test: Antibacterial activity test, whole panel of drug-resistant strains; conditions: summary over the tested drug-resistant strains
From the text: as §1, §2, §3, §4, §5, §6
Dilution of storage solution and inoculation of experimental strain: under aseptic condition, the storage solution was diluted to 256 μg/mL solution. Take a sterile 96-well plate, add 200 μL MHB medium to the 12th well, and add 100 μL MHB medium to each well. Add 100 μL of positive control solution to the first well, mix well, and suck 100 μL from it and discard. […]

[3] = tested on: multidrug-resistant Pseudomonas aeruginosa MDR-PA 18-202; test: MIC by microbroth dilution, MDR-PA 18-202; conditions: strain MDR-PA 18-202, 37° C., 20-22 hours
From the text: as §1, §2, §3, §4, §5, §6, §7, §8

[4] = tested on: methicillin-resistant Staphylococcus aureus MRSA 18-222; test: MIC by microbroth dilution, MRSA 18-222; conditions: for Minimum Bacteriostatic Concentration: strain MRSA 18-222, microbroth dilution, 37° C., 20-22 hours
From the text: as §1, §2, §3, §4, §5, §6, §7, §8
(§9) In FIGS. 1-10, the twelve wells represent twelve groups, from left to right, positive, 128 μg/mL, 64 μg/mL, 32 μg/mL, 16 μg/mL, 8 μg/mL, 4 μg/mL, 2 μg/mL, 1 μg/mL, 0.25 μg/mL, 0.0625 μg/mL, Negative.

[5] = tested on: multidrug-resistant Pseudomonas aeruginosa MDR-PA 18-174; test: MIC by microbroth dilution, MDR-PA 18-174; conditions: for Minimum Bacteriostatic Concentration: strain MDR-PA 18-174, microbroth dilution, 37° C., 20-22 hours
From the text: as §1, §2, §3, §4, §5, §6, §7, §8, §9

[6] = tested on: vancomycin-resistant enterococci VRE 18-80; test: MIC by microbroth dilution, VRE 18-80; conditions: strain VRE 18-80, 37° C., 20-22 hours
From the text: as §1, §2, §3, §4, §5, §6, §7, §8

[7] = tested on: carbapenem-resistant Acinetobacter baumannii CR-AB 18-560; test: MIC by microbroth dilution, CR-AB 18-560; conditions: strain CR-AB 18-560, 37° C., 20-22 hours
From the text: as §1, §2, §3, §4, §5, §6, §7, §8

[8] = tested on: methicillin-resistant Staphylococcus aureus MRSA 18-575; test: MIC by microbroth dilution, MRSA 18-575; conditions: strain MRSA 18-575, 37° C., 20-22 hours
From the text: as §1, §2, §3, §4, §5, §6, §7, §8, §9

[9] = tested on: vancomycin-resistant enterococci VRE 18-94; test: MIC by microbroth dilution, VRE 18-94; conditions: strain VRE 18-94, 37° C., 20-22 hours
From the text: as §1, §2, §3, §4, §5, §6, §7, §8

Row | Molecule | Minimum Bacteriostatic Concentration [1] [µg/mL] | inhibitory effect on drug-resistant bacteria (result in words) [2] | Minimum Bacteriostatic Concentration [3] [µg/mL] | Minimum Bacteriostatic Concentration [4] [µg/mL] | Minimum Bacteriostatic Concentration [5] [µg/mL] | Minimum Bacteriostatic Concentration [6] [µg/mL] | Minimum Bacteriostatic Concentration [7] [µg/mL] | Minimum Bacteriostatic Concentration [8] [µg/mL] | Minimum Bacteriostatic Concentration [9] [µg/mL] | MIC ([4]; Staphylococcus aureus, drug-resistant MRSA, strain not named in the text (value matches 18-222)) [µg/mL] | MIC ([5]; Pseudomonas aeruginosa, MDR-PA, strain not named in the text (value matches 18-174)) [µg/mL]
1 | COc1ccc(C=CC(=O)O)cc1 [4-methoxycinnamic acid] | >128 | no inhibitory effect | >128 | >128 | >128 | >128 | >128 | >128 | >128 | – | –
2 | COc1ccc(/C=C/C(=O)OCCc2ccc(O)c(O)c2)cc1 [(E)-3,4-dihydroxyphenethyl 3-(4-methoxyphenyl)acrylate] | >128 | excellent antibacterial activity | >128 | 4 | 8 | >128 | >128 | 32 | >128 | 4 (≈ 12.7 µM) | 8 (≈ 25.5 µM)
3 | Cc1nnc(SCC2=C(C(=O)O)N3C(=O)[C@@H](NC(=O)Cn4cnnn4)[C@H]3SC2)s1 [Cefazolin sodium, cefazolin sodium] | >128 | – | 128 | >128 | 8 | 32 | >128 | >128 | >128 | – | –
4 | CO/N=C(\C(=O)N[C@@H]1C(=O)N2C(C(=O)O)=C(CSc3nc(=O)c(=O)[nH]n3C)CS[C@H]12)c1csc(N)n1 [Ceftriaxone sodium, ceftriaxone sodium] | >128 | – | 16 | >128 | 128 | 8 | >128 | >128 | >128 | – | –
5 | OCCc1ccc(O)c(O)c1 [Hydroxytyrosol] | >128 | no inhibitory effect | >128 | >128 | >128 | >128 | >128 | >128 | >128 | – | –
6 | gentamicin | >128 | – | 0.0625 | 128 | 0.0625 | 0.0625 | >128 | 2 | >128 | – | –
